Earlier results as cited in PMC7250496 (Journal of medicinal chemistry, 2020).

Experiments:
[1] = target: mMC3R (Mus musculus, UniProt P33033); conditions: previously reported ref 80
[2] = target: mMC5R (Mus musculus, UniProt P41149); conditions: previously reported ref 80
Sequence of mMC5R (P41149 whole entry): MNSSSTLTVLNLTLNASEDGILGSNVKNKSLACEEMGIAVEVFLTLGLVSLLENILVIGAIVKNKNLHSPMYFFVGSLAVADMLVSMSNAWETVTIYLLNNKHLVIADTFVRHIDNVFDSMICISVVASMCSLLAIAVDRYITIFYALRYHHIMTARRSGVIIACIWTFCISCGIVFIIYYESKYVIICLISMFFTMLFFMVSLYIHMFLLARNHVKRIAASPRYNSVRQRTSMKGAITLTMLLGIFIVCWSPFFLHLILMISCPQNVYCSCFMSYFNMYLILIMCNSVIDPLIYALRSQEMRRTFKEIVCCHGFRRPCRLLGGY

Sequence of mMC3R (P33033 whole entry): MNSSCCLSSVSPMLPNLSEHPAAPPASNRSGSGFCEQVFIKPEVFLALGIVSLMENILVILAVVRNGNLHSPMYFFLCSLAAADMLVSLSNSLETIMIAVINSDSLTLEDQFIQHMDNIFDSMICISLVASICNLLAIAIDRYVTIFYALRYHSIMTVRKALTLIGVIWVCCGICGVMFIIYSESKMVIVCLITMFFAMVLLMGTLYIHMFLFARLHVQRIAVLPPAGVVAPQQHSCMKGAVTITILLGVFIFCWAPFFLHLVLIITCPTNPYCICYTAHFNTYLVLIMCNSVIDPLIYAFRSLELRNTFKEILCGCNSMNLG

SMILES: C[C@@H]1NC(=O)[C@H](CN)NC(=O)[C@H](Cc2ccccc2)NC(=O)[C@H](Cc2ccccc2)NC(=O)[C@H](CCCNC(=N)N)NC(=O)[C@@H]2CCCN2C(=O)[C@H]2CCCN2C(=O)[C@H](Cc2ccccc2)NC1=O [Compound 2, c[Pro-Arg-Phe-Phe-Dap-Ala-Phe-DPro]]
- mMC3R pA2 ([1]; antagonist, Schild analysis, agonist NDP-MSH): 6.5 ± 0.09
- EC50 ([1]; read-out: mMC3R EC50, agonist): > 100 µM
- mMC5R Inverse Agonist, percent decrease from basal [2]: Inverse Agonist −15%
